Laboratory results from ChEMBL document CHEMBL1146205, “Isatin sulfonamide analogs containing a Michael addition acceptor: a new class of caspase 3/7 inhibitors” (J Med Chem, 2007).

Legend:
Caspase-6 = molecular target: T1, Caspase-6 (Homo sapiens, UniProt P55212); experiment: Inhibition of human recombinant caspase 6
T1 sequence (P55212 whole entry): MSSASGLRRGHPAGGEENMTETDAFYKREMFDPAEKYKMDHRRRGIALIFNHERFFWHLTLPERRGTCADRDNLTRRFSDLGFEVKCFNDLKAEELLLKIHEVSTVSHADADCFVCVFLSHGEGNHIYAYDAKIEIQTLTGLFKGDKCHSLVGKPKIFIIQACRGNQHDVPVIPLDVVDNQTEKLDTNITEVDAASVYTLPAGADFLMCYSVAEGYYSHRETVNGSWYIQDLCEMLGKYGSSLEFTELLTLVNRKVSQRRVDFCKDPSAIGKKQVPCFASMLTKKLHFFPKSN

[1] = Partition coefficient of the compound, log P; type: physicochemical; conditions: octanol/water
Caspase-3 = molecular target: T2, Caspase-3 (Homo sapiens, UniProt P42574); experiment: Inhibition of human recombinant caspase 3
T2 sequence (P42574 whole entry): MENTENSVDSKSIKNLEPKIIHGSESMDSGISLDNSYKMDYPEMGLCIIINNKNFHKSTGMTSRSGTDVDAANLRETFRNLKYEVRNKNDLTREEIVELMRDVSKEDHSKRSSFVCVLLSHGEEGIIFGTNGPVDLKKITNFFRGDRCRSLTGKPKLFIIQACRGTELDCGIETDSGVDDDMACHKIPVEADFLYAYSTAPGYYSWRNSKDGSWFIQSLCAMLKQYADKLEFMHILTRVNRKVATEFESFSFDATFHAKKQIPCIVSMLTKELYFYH

Caspase-8 = Caspase-8 (Homo sapiens, UniProt Q14790); experiment: Inhibition of human recombinant caspase 8
Caspase-7 = molecular target: T3, Caspase-7 (Homo sapiens, UniProt P55210); experiment: Inhibition of human recombinant caspase 7
T3 sequence (P55210 whole entry): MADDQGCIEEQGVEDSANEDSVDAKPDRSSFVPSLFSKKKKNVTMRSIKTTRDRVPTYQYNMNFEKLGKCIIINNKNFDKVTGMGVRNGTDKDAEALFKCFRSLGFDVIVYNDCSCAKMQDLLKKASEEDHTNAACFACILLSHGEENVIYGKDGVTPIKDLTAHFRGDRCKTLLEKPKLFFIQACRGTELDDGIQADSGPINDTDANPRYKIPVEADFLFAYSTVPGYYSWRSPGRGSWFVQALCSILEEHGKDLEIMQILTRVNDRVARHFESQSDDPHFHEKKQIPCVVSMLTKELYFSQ

Caspase-1 = molecular target: T4, Caspase-1 (Homo sapiens, UniProt P29466); experiment: Inhibition of human recombinant caspase 1
T4 sequence (P29466 whole entry): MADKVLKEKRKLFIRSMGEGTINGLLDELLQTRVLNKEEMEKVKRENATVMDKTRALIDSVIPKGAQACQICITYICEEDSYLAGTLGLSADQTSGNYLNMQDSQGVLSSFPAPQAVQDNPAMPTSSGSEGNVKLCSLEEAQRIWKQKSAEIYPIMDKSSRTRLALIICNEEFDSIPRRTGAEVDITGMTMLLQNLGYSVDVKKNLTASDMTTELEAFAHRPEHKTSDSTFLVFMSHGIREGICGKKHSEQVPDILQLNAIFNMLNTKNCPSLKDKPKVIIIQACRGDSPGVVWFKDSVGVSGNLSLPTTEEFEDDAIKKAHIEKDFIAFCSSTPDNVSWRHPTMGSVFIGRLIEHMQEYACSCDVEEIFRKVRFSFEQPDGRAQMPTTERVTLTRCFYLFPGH

Sequence of Caspase-8 (Q14790 217-374 limits assumed): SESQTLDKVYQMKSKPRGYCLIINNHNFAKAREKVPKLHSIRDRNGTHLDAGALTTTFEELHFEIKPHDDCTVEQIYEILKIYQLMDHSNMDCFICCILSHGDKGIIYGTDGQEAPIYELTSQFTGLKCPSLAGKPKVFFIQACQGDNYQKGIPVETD
Sequence of Caspase-8 (Q14790 385-479 limits assumed): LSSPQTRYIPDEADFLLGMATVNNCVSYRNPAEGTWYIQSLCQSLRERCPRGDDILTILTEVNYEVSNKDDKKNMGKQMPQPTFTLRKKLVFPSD

| SMILES | IC50 (Caspase-6) [nM] | logP [1] | IC50 (Caspase-3) [nM] | IC50 (Caspase-8) [nM] | IC50 (Caspase-7) [nM] | IC50 (Caspase-1) [nM] |
| --- | --- | --- | --- | --- | --- | --- |
| O=C1C(=O)N(Cc2ccc(OCCF)cc2)c2ccc(S(=O)(=O)N3CCC[C@H]3COc3ccccc3)cc21 |  | 4.19 |  |  |  |  |
| O=C1C(=O)N(Cc2ccc(Br)cc2)c2ccc(S(=O)(=O)N3CCC[C@H]3COc3cccnc3)cc21 | 5030 | 3.76 | 3.6 | > 50000 | 6.6 | > 15000 |
| N#CC(C#N)=C1C(=O)Nc2ccc(S(=O)(=O)N3CCC[C@H]3COc3ccccc3)cc21 | 407 | 1.07 | 272 | > 50000 | 1590 | 1830 |
| O=C1C(=O)N(Cc2ccc(O)cc2)c2ccc(S(=O)(=O)N3CCC[C@H]3COc3cccnc3)cc21 | 9550 | 2.25 | 3.9 | > 50000 | 11.7 | > 15000 |
| COc1ccc(CN2C(=O)C(=C(C#N)C#N)c3cc(S(=O)(=O)N4CCC[C@H]4COc4cccnc4)ccc32)cc1 | 610 | 2.36 | 7.8 | > 50000 | 29.6 | 3900 |
| O=C1C(=O)N(Cc2ccc(Br)cc2)c2ccc(S(=O)(=O)N3CCC[C@H]3COc3ccccc3)cc21 | 8900 | 4.82 | 9.85 | > 50000 | 34.8 | > 15000 |
| CN1C(=O)C(=C(C#N)C#N)c2cc(S(=O)(=O)N3CCC[C@H]3COc3ccccc3)ccc21 | 698 | 1.71 | 119 | > 50000 | 785 | 2830 |

More lines, now with the values ahead:

| IC50 (Caspase-6) [nM] | logP [1] | IC50 (Caspase-3) [nM] | IC50 (Caspase-8) [nM] | IC50 (Caspase-7) [nM] | IC50 (Caspase-1) [nM] | SMILES |
| --- | --- | --- | --- | --- | --- | --- |
| 515 | 3.22 | 5.1 | > 50000 | 26.3 | 3400 | N#CC(C#N)=C1C(=O)N(Cc2ccc(Br)cc2)c2ccc(S(=O)(=O)N3CCC[C@H]3COc3cccnc3)cc21 |
| 823 | 2.45 | 7.6 | > 50000 | 32.8 | 3250 | N#CC(C#N)=C1C(=O)N(Cc2ccccc2)c2ccc(S(=O)(=O)N3CCC[C@H]3COc3cccnc3)cc21 |
| 650 | 1.77 | 7.8 | > 50000 | 28.3 | 2720 | N#CC(C#N)=C1C(=O)N(Cc2ccc(O)cc2)c2ccc(S(=O)(=O)N3CCC[C@H]3COc3cccnc3)cc21 |
| 744 | 2.77 | 31.8 | > 50000 | 126 | 2300 | N#CC(C#N)=C1C(=O)N(Cc2ccc(O)cc2)c2ccc(S(=O)(=O)N3CCC[C@H]3COc3ccccc3)cc21 |
| 840 | 4.28 | 20.1 | > 50000 | 92.2 | 5700 | N#CC(C#N)=C1C(=O)N(Cc2ccc(Br)cc2)c2ccc(S(=O)(=O)N3CCC[C@H]3COc3ccccc3)cc21 |
| 918 | 3.5 | 27.8 | > 50000 | 51.7 | 6220 | N#CC(C#N)=C1C(=O)N(Cc2ccccc2)c2ccc(S(=O)(=O)N3CCC[C@H]3COc3ccccc3)cc21 |
